Data from US4162938A, “Antibiotic compound” (Bristol-Myers Company, priority 1978, dated 1979).
In brackets after ≈: the same amount, converted by molar mass. Where two headings read alike, the source gives them in different places.

Experiments:
Proteus vulgaris A-9716 = experiment: MIC, standard tube dilution procedure; format: cell-based
Description: (§1) The in vitro minimum inhibitory concentrations (MIC) of rudolphomycin were determined for a number of microorganisms using the standard tube dilution procedure.

[1] = tested on: Pseudomonas aeruginosa A-9843A; experiment: MIC, standard tube dilution procedure; format: cell-based
Description: as §1

[2] = tested on: Trichophyton mentagrophytes A-9870; experiment: MIC, standard tube dilution procedure; format: cell-based
Description: as §1

[3] = tested on: Enterobacter cloacae A-9659; experiment: MIC, standard tube dilution procedure; format: cell-based
Description: as §1

[4] = tested on: Streptococcus pneumoniae A-9585; experiment: MIC, standard tube dilution procedure; format: cell-based
Description: as §1

[5] = tested on: Cryptococcus neoformans A-15053; experiment: MIC, standard tube dilution procedure; format: cell-based
Description: as §1

[6] = tested on: Candida tropicalis A-15051; experiment: MIC, standard tube dilution procedure; format: cell-based
Description: as §1

[7] = tested on: Staphylococcus aureus A-9537; experiment: MIC, standard tube dilution procedure; format: cell-based
Description: as §1

[8] = tested on: Serratia marcescens A-20019; experiment: MIC, standard tube dilution procedure; format: cell-based
Description: as §1

[9] = tested on: Klebsiella pneumoniae A-15130; experiment: MIC, standard tube dilution procedure; format: cell-based
Description: as §1

[10] = tested on: Escherichia coli A-20341-1; experiment: MIC, standard tube dilution procedure; format: cell-based
Description: as §1

Proteus mirabilis A-9900 = experiment: MIC, standard tube dilution procedure; format: cell-based
Description: as §1

Candida albicans A-9540 = experiment: MIC, standard tube dilution procedure; format: cell-based
Description: as §1

Escherichia coli A-15119 = experiment: MIC, standard tube dilution procedure; format: cell-based
Description: as §1

[11] = tested on: Streptococcus faecalis A-20688; experiment: MIC, standard tube dilution procedure; format: cell-based
Description: as §1

Candida krusei A-15052 = experiment: MIC, standard tube dilution procedure; format: cell-based
Description: as §1

[12] = tested on: Staphylococcus aureus A-9606; experiment: MIC, standard tube dilution procedure; format: cell-based
Description: as §1

Microsporum canis A-9872 = experiment: MIC, standard tube dilution procedure; format: cell-based
Description: as §1

[13] = tested on: Streptococcus pyogenes A-9604; experiment: MIC, standard tube dilution procedure; format: cell-based
Description: as §1

L-1210 leukemia = format: in vivo, mouse (BDF1 female)
Description: The compound of the present invention was also tested against the transplantable mouse tumor L-1210 lymphatic leukemia which is responsive to anthracycline-type antitumor agents.
Tumor inoculum: 10^6 ascites cells implanted i.p.
Host: BDF1 .female. mice
Evaluation: MST = median survival time
Effect: % T/C = MST treated/MST control × 100
Criteria: T/C ≥ 125 considered significant antitumor effect.

[14] = Biological activity of chromatographic fractions of bohemic acid complex (test not specified); conditions: Example 5, large scale LH-20
P388 mouse leukemia = experiment: Activity of chromatographic bands on P388 mouse leukemia system; format: in vivo; conditions: Example 4 bands
L1210 mouse leukemia = experiment: Activity of chromatographic bands on L1210 mouse leukemia system; format: in vivo; conditions: Example 4 bands
[15] = day 1 (1 inj.), 0.4 mg./kg./inj.
[16] = day 1 (1 inj.), 0.8 mg./kg./inj.
[17] = day 1 (1 inj.), 1.6 mg./kg./inj.
[18] = day 1 (1 inj.), 3.2 mg./kg./inj.
[19] = day 1 (1 inj.), 6.4 mg./kg./inj.
[20] = day 1 (1 inj.), 12.8 mg./kg./inj.
[21] = days 1, 4, 7 (3 inj.), 0.2 mg./kg./inj.
[22] = days 1, 4, 7 (3 inj.), 0.4 mg./kg./inj.
[23] = days 1, 4, 7 (3 inj.), 0.8 mg./kg./inj.
[24] = days 1, 4, 7 (3 inj.), 1.6 mg./kg./inj.
[25] = days 1, 4, 7 (3 inj.), 3.2 mg./kg./inj.
[26] = days 1, 4, 7 (3 inj.), 6.4 mg./kg./inj.
[27] = days 1→5 (5 inj.), 0.1 mg./kg./inj.
[28] = days 1→5 (5 inj.), 0.2 mg./kg./inj.
[29] = days 1→5 (5 inj.), 0.4 mg./kg./inj.
[30] = days 1→5 (5 inj.), 0.8 mg./kg./inj.
[31] = days 1→5 (5 inj.), 1.6 mg./kg./inj.
[32] = days 1→5 (5 inj.), 3.2 mg./kg./inj.
[33] = days 1→9 (9 inj.), 0.05 mg./kg./inj.
[34] = days 1→9 (9 inj.), 0.1 mg./kg./inj.
[35] = days 1→9 (9 inj.), 0.2 mg./kg./inj.
[36] = days 1→9 (9 inj.), 0.4 mg./kg./inj.
[37] = days 1→9 (9 inj.), 0.8 mg./kg./inj.
[38] = days 1→9 (9 inj.), 1.6 mg./kg./inj.

CC[C@@]1(O)C[C@H](O[C@H]2C[C@H](N(C)C)[C@H](O[C@H]3C[C@H](O)[C@H](O[C@@H]4O[C@@H](C)C(=O)C=C4N)[C@@H](C)O3)[C@@H](C)O2)c2c(cc3c(c2O)C(=O)c2c(O)ccc(O)c2C3=O)[C@H]1C(=O)OC [Rudolphomycin]
MIC (Proteus vulgaris A-9716): > 63 µg/mL
MIC [1]: > 63 µg/mL
MIC [2]: > 125 µg/mL
MIC [3]: > 63 µg/mL
MIC [4]: 0.25 µg/mL (≈ 0.297 µM)
MIC [5]: 63 µg/mL (≈ 74.9 µM)
MIC [6]: > 125 µg/mL
MIC [7]: 2 µg/mL (≈ 2.38 µM)
MIC [8]: > 63 µg/mL
MIC [9]: > 63 µg/mL
MIC [10]: > 63 µg/mL
MIC (Proteus mirabilis A-9900): > 63 µg/mL
MIC (Candida albicans A-9540): > 125 µg/mL
MIC (Escherichia coli A-15119): > 63 µg/mL
MIC [11]: 4 µg/mL (≈ 4.76 µM)
MIC (Candida krusei A-15052): > 125 µg/mL
MIC [12]: 8 µg/mL (≈ 9.51 µM)
MIC (Microsporum canis A-9872): > 125 µg/mL
MIC [13]: 0.5 µg/mL (≈ 0.595 µM)
MST % T/C (L-1210 leukemia; [15]): 114%
MST (median survival time) (L-1210 leukemia; [15]): 8.0 days
MST % T/C (L-1210 leukemia; [16]): 114%
MST (median survival time) (L-1210 leukemia; [16]): 8.0 days
MST % T/C (L-1210 leukemia; [17]): 114%
MST (median survival time) (L-1210 leukemia; [17]): 8.0 days
MST % T/C (L-1210 leukemia; [18]): 143%
MST (median survival time) (L-1210 leukemia; [18]): 10.0 days
MST % T/C (L-1210 leukemia; [19]): 143%
MST (median survival time) (L-1210 leukemia; [19]): 10.0 days
MST % T/C (L-1210 leukemia; [20]): 143%
MST (median survival time) (L-1210 leukemia; [20]): 10.0 days
MST % T/C (L-1210 leukemia; [21]): 114%
MST (median survival time) (L-1210 leukemia; [21]): 8.0 days
MST % T/C (L-1210 leukemia; [22]): 114%
MST (median survival time) (L-1210 leukemia; [22]): 8.0 days
MST % T/C (L-1210 leukemia; [23]): 136%
MST (median survival time) (L-1210 leukemia; [23]): 9.5 days
MST % T/C (L-1210 leukemia; [24]): 143%
MST (median survival time) (L-1210 leukemia; [24]): 10.0 days
MST % T/C (L-1210 leukemia; [25]): 100%
MST (median survival time) (L-1210 leukemia; [25]): 7.0 days
MST % T/C (L-1210 leukemia; [26]): 129%
MST (median survival time) (L-1210 leukemia; [26]): 9.0 days
MST % T/C (L-1210 leukemia; [27]): 114%
MST (median survival time) (L-1210 leukemia; [27]): 8.0 days
MST % T/C (L-1210 leukemia; [28]): 129%
MST (median survival time) (L-1210 leukemia; [28]): 9.0 days
MST % T/C (L-1210 leukemia; [29]): 129%
MST (median survival time) (L-1210 leukemia; [29]): 9.0 days
MST % T/C (L-1210 leukemia; [30]): 143%
MST (median survival time) (L-1210 leukemia; [30]): 10.0 days
MST % T/C (L-1210 leukemia; [31]): 129%
MST (median survival time) (L-1210 leukemia; [31]): 9.0 days
MST % T/C (L-1210 leukemia; [32]): 129%
MST (median survival time) (L-1210 leukemia; [32]): 9.0 days
MST % T/C (L-1210 leukemia; [33]): 114%
MST (median survival time) (L-1210 leukemia; [33]): 8.0 days
MST % T/C (L-1210 leukemia; [34]): 107%
MST (median survival time) (L-1210 leukemia; [34]): 7.5 days
MST % T/C (L-1210 leukemia; [35]): 129%
MST (median survival time) (L-1210 leukemia; [35]): 9.0 days
MST % T/C (L-1210 leukemia; [36]): 129%
MST (median survival time) (L-1210 leukemia; [36]): 9.0 days
MST % T/C (L-1210 leukemia; [37]): 129%
MST (median survival time) (L-1210 leukemia; [37]): 9.0 days
MST % T/C (L-1210 leukemia; [38]): 107%
MST (median survival time) (L-1210 leukemia; [38]): 7.5 days

CC[C@@]1(O)C[C@H](O[C@H]2C[C@H](N(C)C)[C@H](O[C@H]3C[C@H](O)[C@H](O)[C@H](C)O3)[C@H](C)O2)c2c(cc3c(c2O)C(=O)c2c(O)ccc(O)c2C3=O)[C@H]1C(=O)OC [musettamycin]
activity of chromatographic fraction [14]: active
activity on P388 mouse leukemia (P388 mouse leukemia): highly active
activity on L1210 mouse leukemia (L1210 mouse leukemia): highly active
